# Laboratory results published in PMC7943581, “Tumor-penetrating therapy for β5 integrin-rich pancreas cancer” (Nature Communications, 2021).
# Legend:
# [1] = test system: KPC mouse tumors; experiment: Modified Miles assay, Evans Blue with iRGD co-injection; format: in vivo; settings: IV 100 μl 1% Evans blue then 100 μg iRGD or PBS, 40 min, OD 600 nm, Fig S14
# Procedure: The experiments were performed as described earlier[20],[38]. In brief, for Miles assays, anesthetized mice were warmed to 37 °C for 10 min, followed by an IV bolus of 100 μl of 1% Evans blue dye and then 100 μg of iRGD. After 40 min, the mice under deep anesthesia were perfused through the heart with PBS containing 1% BSA and the organs were harvested for dye extraction using […]. OD 600 nm of the supernatant was measured. For dextran delivery, mice were intravenously injected with 0.3 mg of iRGD followed by 0.3 mg of 10 kDa Alexa 647-conjugated fixable dextran (Invitrogen). After 1 h of circulation, mice were perfused with PBS containing 1% BSA and the organs were harvested and processed for immunofluorescence.
# [2] = test system: mPCFAA0779 CAFs and LM-PmC cells; experiment: Peptide entry in 2D co-cultures (confocal microscopy); format: cell-based, mouse; settings: 2D co-culture, 20 μM peptide, 4 h, 37 °C
# Procedure: A mixture of tumor cells and CAFs at a 2:1 ratio was grown on collagen I-coated coverslips (BD Biosciences) overnight or until they became confluent. The cells were incubated with 20 μM of FAM-labeled peptides for 4 h at 37 °C. The cells were briefly rinsed with warm PBS, fixed in warm 4% paraformaldehyde, and stained with DAPI (1:1000). The cells were visualized with a Fluoview 500 confocal microscope (Olympus America, Center Valley, PA).
# [3] = test system: PDAC in KPC mice; experiment: Long-term treatment of KPC mice, gemcitabine with or without iRGD; format: in vivo, mouse
# Procedure: One hundred micrograms of FAM-labeled peptide dissolved in 100 μl of PBS was intravenously injected into tumor mice, and allowed to circulate for 15, 30, or 60 min. The mice were perfused through the heart under deep anesthesia using PBS containing 1% BSA, and tissues were harvested, fixed with 4% PFA overnight, washed three times with PBS, and then transferred to 30% sucrose prior to embedding in optimal cutting temperature compound (OCT). In some cases, the FAM signal was enhanced with an anti-fluorescein antibody (1:200) (Cat no. A-889, Invitrogen) followed by a secondary anti-rabbit Alexa 488 antibody (1:200) (Invitrogen). Other antibodies used for immunofluorescence were anti-FAP (1:100) (Cat. no. ABT-11, Millipore Sigma, Temecula, CA), Cy3-anti-αSMA (1:100) (Clone 1A4, Cat. no. C6198, Millipore Sigma), anti-ER-TR7 (1:100) (Cat. no. SC-73355, Santa Cruz Biotechnology, Dallas, TX), rabbit anti-mouse β5 integrin (1:200) (Cat. no. 15459, GeneTex, Irvine, CA), rabbit monoclonal anti-Ki67 (1:200) (Clone SP6, Cat. no. ab16667, Abcam), mouse monoclonal anti-αSMA (0.034 μg/ml) (Clone 1A4, Cat. no. ab7817, Abcam), and rat anti-mouse CD31(1:100) (Clone MEC 13.3, Cat. no. 550274, BD Biosciences) antibodies. The sections were also stained with 4′,6-diamidino-2-phenylindole (DAPI) (1:1000) (Invitrogen). The stained tissue sections were examined with a Zeiss confocal microscope (Zeiss, Dublin, CA). To quantify FAM-iRGD homing (green) and its colocalization with CAFs (red), confocal micrographs were converted to RGB color mode and analyzed with an ImageJ software for the intensity and areas positive for one or both colors. Six to eight random fields per tumor were chosen and repeated in three tumor mice for each time point. For intraductal spreading of FAM-iRGD, cancerous ducts with or without FAM-iRGD signal were manually counted per field of view in confocal micrographs. Six random fields were chosen for each of the three tumors at both time points.
# Immunohistochemistry was performed as described previously. Briefly, paraffin-embedded sections were cleared, rehydrated, and subjected to steam heat-mediated antigen retrieval using low or high pH buffer (eBioscience). Endogenous peroxidase activity was blocked with BloxALL (Vector, Burlingame, CA). Blocking was performed with 10% donkey or goat serum plus 5% BSA. The sections were treated with a rabbit anti-αvβ5 polyclonal antibody (1:200) (Cat. no. bs-1356R, BIOSS, Woburn, MA) or a rabbit polyclonal anti-cleaved caspase 3 antibody (1:250) (Cat. no. 9579S, Cell Signaling) at 4 °C overnight and incubated with ImmPRESS (IHC-P, rabbit, MP-7401) secondary antibody reagent (Vector, Burlingame, CA). The sections were counter stained with hematoxylin and eosin (H&E) and viewed with a Nikon Eclipse E-600 bright field microscope.
# KPC mice with PDAC of ~4–5 mm confirmed by palpation and ultrasound imaging were randomized into respective treatment cohorts: iRGD alone (100 μg/IV injection, n = 10); gemcitabine (TSZ Chem, Waltham, MA) (100 mg/kg/IP injection, n = 18); iRGD + gemcitabine (n = 16). The treatment was given every 4 days until the mice met the criteria for sacrifice defined by the IACUC. Survival curves were drawn and analyzed using GraphPad (Prism8) software. In another study, the KPC mice were randomized into gemcitabine (100 mg/kg/IP injection) + nab-paclitaxel composed of mouse albumin (30 mg/kg/IP injection) or iRGD (100 μg/IV injection) + gemcitabine + nab-paclitaxel. […]
# [4] = test system: NRP-1 expression in PC3 cells; experiment: Cell surface NRP-1 expression in PC3 cells with TGF-β or LY2157299; format: cell-based, human; settings: Fig 4F
# Procedure: (§1) Spheroids were generated by incubating 5 × 10^4 cells per well in 24-well low binding plates for 3 days. For co-culture studies, spheroids prepared with a mixture of 5 × 10^4 CAFs and 10^4 tumor cells per well were used. In some cases, spheroids were maintained in CM for 2 days in the presence or absence of 10 μM dimethyl sulfoxide (DMSO) or a specific TGF-β inhibitor LY2157299 (PeproTech, Princeton, NJ). The CM was prepared from the supernatant of 3-day-old cultures of CAFs or tumor cells, which was centrifuged at 2000×g for 40 min to remove cellular debris. Some spheroids were incubated in the presence of 30 ng/ml human TGF-β (eBioscience, San Diego, CA) for 48 h.
# (§2) Cells were trypsinized into a single cell suspension before staining. The primary antibodies were mouse anti-human αvβ3 (1 μg/sample) (Clone LM609 Cat no. MAB1976, EMD Millipore, Billerica, MA), mouse anti-human αvβ5 (1 μg) (Clone P1F6, Cat no. MAB1961 EMD Millipore), rat anti-mouse αv (1 μg) (Clone RMV7, Cat no. 50-104-13, eBioscience), rabbit anti-human NRP-1 b1b2[20] (1 μg), and Alexa 647 or BV421-conjugated mouse anti-human/mouse αvβ5 (1:50) (clone ALULA Cat no. 565836 or 743669, BD Biosciences, San Jose, CA). The primary antibodies were detected with corresponding secondary antibodies conjugated with Alexa 488, 594, or 647 (1:250) (Invitrogen). The cells were analyzed with an LSR Fortessa System (BD Biosciences), and the data were analyzed with a FlowJo software. Cells were gated on single cells and then on live cells by excluding DAPI or PI positive cells. In tumor cell/CAF co-culture experiments, mCherry high cells were gated in order to define the mCherry-labeled CAFs. For iRGD-AgNP uptake quantification, specific uptake was defined by gating cells positive for either Alexa 647 or 488, which were attached to the AgNPs.
# (§3) Spheroids were dissociated into a single cell suspension as described in the previous section. The cells were subjected to flow cytometry to analyze the protein expression of αvβ3 and αvβ5 integrins and NRP-1. The flow cytometry was performed as described in a previous section. Some cells were also subjected to qPCR to analyze mRNA expression of αv (ITGav) and ITGb5 integrin subunits, TGF-β, and ZEB1. Total RNA was extracted using Trizol Reagent (Invitrogen), and cDNA was generated using a SuperScript III First-strand Synthesis System (Invitrogen). qPCR was performed using SYBR green in an ABI 7900 HT (Applied Biosystems, Foster City, CA). The results were normalized against β-actin and cyclophilin A. The list of primers can be found in Supplementary Table 1.
# [5] = test system: αvβ5 integrin expression in PC3 cells; experiment: Cell surface αvβ5 integrin expression in PC3 cells with TGF-β or LY2157299; format: cell-based, human; settings: for avb5 MFI: Fig 4E
# Procedure: as §1, §2, §3
compound,measurement,setting,value
"Cc1cc(-c2ccc(/N=N/c3ccc4c(S(=O)(=O)O)cc(S(=O)(=O)O)c(N)c4c3O)c(C)c2)ccc1/N=N/c1ccc2c(S(=O)(=O)O)cc(S(=O)(=O)O)c(N)c2c1O [PBS + EB, Evans Blue]",Evans Blue in KPC mouse tumors normalized against wet tissue weight,[1]; Exp 1,0.004 µg/mL/mg
same,Evans Blue in KPC mouse tumors normalized against wet tissue weight,[1]; Exp 2,0.07 µg/mL/mg
same,Evans Blue in KPC mouse tumors normalized against wet tissue weight,[1]; Exp 3,-0.074 µg/mL/mg
"CRGEKGPDC [FAM-iRGE, variant peptide (…) with the RGD motif changed to RGE, FAM-labeled]",entry of FAM-labeled peptide into cells,[2],minimal affinity to the cells
"Nc1ccn([C@@H]2O[C@H](CO)[C@@H](O)C2(F)F)c(=O)n1 [Gem, gemcitabine]",liver metastases (median),"[3]; KPC mice, necropsy of random samples, not significant",26
same,lung metastases (median),"[3]; KPC mice, necropsy of random samples, p = 0.03",9
same,survival at 180 days,"[3]; KPC mice, treatment every 4 days",0%
same,median survival,"[3]; KPC mice, treatment every 4 days, n = 16 combination, n = 18 gemcitabine",71 days
"CRGDK/RGPD/EC [iRGD, iRGD tumor-penetrating peptide (CRGDK/RGPD/EC)]",therapeutic benefit vs historical survival of untreated KPC mice,"[3]; iRGD alone 100 μg IV every 4 days, n = 10, Fig S15",did not provide any therapeutic benefit
TGF-β,NRP1 MFI,"[4]; PC3, NM+TGFb+DMSO, Exp1",12904
same,NRP1 MFI,"[4]; PC3, NM+TGFb+DMSO, Exp2",3924
same,NRP1 MFI,"[4]; PC3, NM+TGFb+DMSO, Exp3",4995
same,avb5 MFI,"[5]; PC3, NM+TGFb+DMSO, Exp1",7502
same,avb5 MFI,"[5]; PC3, NM+TGFb+DMSO, Exp2",9515
same,avb5 MFI,"[5]; PC3, NM+TGFb+DMSO, Exp3",6238
same,avb5 MFI,"[5]; PC3, NM+TGFb+DMSO, Exp4",5783
same,effect of exogenous TGF-β on αvβ5 expression,"[5]; cultured PC3 cells, 30 ng/ml, 48 h",reproduced the CAF CM-induced increase in αvβ5 expression
Cc1cccc(-c2nn3c(c2-c2ccnc4ccc(C(N)=O)cc24)CCC3)n1 [LY2157299],NRP1 MFI,"[4]; PC3, CAFCM+LY, Exp1",4550
same,NRP1 MFI,"[4]; PC3, CAFCM+LY, Exp2",2287
same,NRP1 MFI,"[4]; PC3, CAFCM+LY, Exp3",2840
same,NRP1 MFI,"[4]; PC3, NM+TGFb+LY, Exp1",11021
same,NRP1 MFI,"[4]; PC3, NM+TGFb+LY, Exp2",3760
same,NRP1 MFI,"[4]; PC3, NM+TGFb+LY, Exp3",6318
same,effect on CAF CM-induced αvβ5 expression in PC3 cells,"[5]; 10 μM, 2 days in CM",completely blocked
same,avb5 MFI,"[5]; PC3, CAFCM+LY, Exp1",4907
same,avb5 MFI,"[5]; PC3, CAFCM+LY, Exp2",3245
same,avb5 MFI,"[5]; PC3, CAFCM+LY, Exp3",2633
same,avb5 MFI,"[5]; PC3, CAFCM+LY, Exp4",2959
same,avb5 MFI,"[5]; PC3, NM+TGFb+LY, Exp1",4584
same,avb5 MFI,"[5]; PC3, NM+TGFb+LY, Exp2",3278
same,avb5 MFI,"[5]; PC3, NM+TGFb+LY, Exp3",2186
same,avb5 MFI,"[5]; PC3, NM+TGFb+LY, Exp4",2450
FAM-CRGDC,entry of FAM-labeled peptide into cells,[2],to a much lesser extent than FAM-iRGD
